# Measurements: patent publication US10087172B2, “Compounds and their methods of use” (AGIOS PHARMACEUTICALS, INC, priority 2012, dated 2018)
# Target: T1, glutaminase (GAC) (Homo sapiens, UniProt O94925)
# T1 sequence (O94925 55-598 isoform O94925-3 limits assumed): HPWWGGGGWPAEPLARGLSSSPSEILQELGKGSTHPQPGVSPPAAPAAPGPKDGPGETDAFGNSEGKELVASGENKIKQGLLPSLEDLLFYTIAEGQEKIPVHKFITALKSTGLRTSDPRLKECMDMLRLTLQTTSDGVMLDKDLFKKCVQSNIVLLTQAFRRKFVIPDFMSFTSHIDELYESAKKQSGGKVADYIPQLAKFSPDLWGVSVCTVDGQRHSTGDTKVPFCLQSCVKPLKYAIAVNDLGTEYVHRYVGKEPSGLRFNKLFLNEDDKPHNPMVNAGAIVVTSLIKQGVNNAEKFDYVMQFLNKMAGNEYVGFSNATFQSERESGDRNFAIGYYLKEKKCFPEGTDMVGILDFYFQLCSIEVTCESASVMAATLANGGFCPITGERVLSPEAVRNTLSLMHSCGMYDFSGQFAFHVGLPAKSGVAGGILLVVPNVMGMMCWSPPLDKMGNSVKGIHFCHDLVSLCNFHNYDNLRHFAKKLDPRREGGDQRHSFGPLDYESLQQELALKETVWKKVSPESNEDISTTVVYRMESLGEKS
# Test: Glutaminase (GAC) coupled endpoint enzymatic assay (glutamate dehydrogenase/diaphorase/resazurin, Ex544/Em590)
# Assay type: biochemical
# Settings: inhibition of glutaminase, tested in an assay of Example A or Example B; class symbols A-E
# From the text: In certain embodiments, exemplary compounds of Formula I include the compounds described in Table 1 and in the Examples. A compound described herein may be tested for its ability to inhibit glutaminase, e.g., by an assay as described in the Examples. For simplicity, the inhibition activity of these compounds is represented as an IC50 tested in an assay of Example A or Example B in Table 1. […] “N/A” refers to compounds wherein the IC50 is unavailable.
# In this example, the enzymatic activity of glutaminase is measured through a coupled endpoint assay. Glutamine and phosphate are supplied to GAC at a concentration equal to Km and AC50, respectively, and GAC concentration is adjusted to give a linear reaction for 60 minutes. The glutamate produced is converted to 2-OG by a kinetic excess of glutamate dehydrogenase. This second step is configured for 2× Km for NAD, since excess NAD is inhibitory. However, a kinetic excess of the third coupling enzyme, diaphorase, recycles NAD from NADH to keep the NAD concentration constant during the timecourse of the assay. Diaphorase, also supplied in kinetic excess, oxidizes NADH produced by GDH back to NAD with the concomitant reduction of rezasurin to the highly fluorescent resorufin. Resorufin in measured after the assay is stopped with SDS by Ex544/Em590. A reduction in the signal indicates inhibition of some component of the coupled enzyme system. Prospective hits are counterscreened against GDH/diaphorase alone to remove hits to the coupling enzyme system in a second assay.
# 2. Buffers 2× Buffer (300 mM NaCl, 100 mM HEPES pH 8.5, 0.1% BSA, 0.5 mM EDTA, 100 mM sodium phosphate pH 8.5) 5× Substrate Mix (1× Buffer final concentration, with 13 mM glutamine, 100 μM resazurin, 50 μg/ml diaphorase) 1.2× Enzyme Mix (1× Buffer final concentration, with 0.875 μg/ml GAC, 1.56 mM NAD, 6.25 units/ml GDH) Stop Mix (6% SDS in ddH2O) Reaction Procedure 1. Add 1 μl compound in 100% DMSO 2. Add 40 μl of Enzyme Mix and incubate for 60 minute at room temperature 3. Add 10 μl of Substrate Mix to start reaction 4. Stop reaction with 25 μl of 6% SDS and read Ex544 Em 590
row,Compound,IC50 [nM]
1,O=C(Cc1nccs1)Nc1nnc([C@H]2CCC[C@H](c3nnc(NC(=O)Cc4nccs4)s3)C2)s1 [Compound 100],< 100
2,"O=C(/C=C/c1ccccn1)Nc1nnc([C@H]2CCC[C@H](c3nnc(NC(=O)/C=C/c4ccccn4)s3)C2)s1 [Compound 45, (2E,2′E)-N,N′-(5,5′-((1S,3S)-cyclohexane-1,3-diyl)bis(1,3,4-thiadiazole-5,2-diyl))bis(3-(pyridin-2-yl)acrylamide)]",100 to 500
3,O=C(Cc1nccs1)Nc1nnc([C@H]2CCC[C@H](c3nnc(NC(=O)Cc4nccs4)s3)C2)s1 [Compound 61],100 to 500
4,"O=C(Cc1cccc(Cl)c1)Nc1nnc([C@H]2CCC[C@H](c3nnc(NC(=O)Cc4cccc(Cl)c4)s3)C2)s1 [Compound 43, N,N′-(5,5′-((1S,3S)-cyclohexane-1,3-diyl)bis(1,3,4-thiadiazole-5,2-diyl))bis(2-(3-chlorophenyl)acetamide)]",100 to 500
5,O=C(Cc1ccc2c(c1)OCO2)Nc1nnc([C@H]2CCC[C@H](c3nnc(NC(=O)Cc4ccc5c(c4)OCO5)s3)C2)s1 [Cmpd 86],< 100
6,"CSCCC(=O)Nc1nnc([C@H]2CCC[C@H](c3nnc(NC(=O)CCSC)s3)C2)s1 [Compound 46, N,N′-(5,5′-((1S,3S)-cyclohexane-1,3-diyl)bis(1,3,4-thiadiazole-5,2-diyl))bis(3-(methylthio)propanamide)]",100 to 500
7,"CC(C)Oc1cccc(CC(=O)Nc2nnc([C@H]3CCC[C@H](c4nnc(NC(=O)Cc5cccc(OC(C)C)c5)s4)C3)s2)c1 [Compound 91, N,N′-(5,5′-((1S,3S)-cyclohexane-1,3-diyl)bis(1,3,4-thiadiazole-5,2-diyl))bis(2-(3-isopropoxyphenyl)acetamide)]",100 to 500
8,"N#Cc1cccc(CC(=O)Nc2nnc([C@H]3CCC[C@H](c4nnc(NC(=O)Cc5cccc(C#N)c5)s4)C3)s2)c1 (single isomer, unassigned) [Compound 73]",< 100
9,O=C(Cc1c(F)cccc1F)Nc1nnc([C@H]2CCC[C@H](c3nnc(NC(=O)Cc4c(F)cccc4F)s3)C2)s1 [Compound 89],100 to 500
10,"CS(=O)(=O)c1ccc(CC(=O)Nc2nnc([C@H]3CCC[C@H](c4nnc(NC(=O)Cc5ccc(S(C)(=O)=O)cc5)s4)C3)s2)cc1 [Compound 66, N,N′-(5,5′-((1S,3S)-cyclohexane-1,3-diyl)bis(1,3,4-thiadiazole-5,2-diyl))bis(2-(4-(methylsulfonyl)phenyl)acetamide)]",< 100
11,"O=C(Cc1ccccc1F)Nc1nnc([C@H]2CCC[C@H](c3nnc(NC(=O)Cc4ccccc4F)s3)C2)s1 [Compound 87, N,N′-(5,5′-((1S,3S)-cyclohexane-1,3-diyl)bis(1,3,4-thiadiazole-5,2-diyl))bis(2-(2-fluorophenyl)acetamide)]",< 100
12,"CC(C)Oc1ccccc1CC(=O)Nc1nnc([C@H]2CCC[C@H](c3nnc(NC(=O)Cc4ccccc4OC(C)C)s3)C2)s1 [Compound 92, N,N′-(5,5′-((1S,3S)-cyclohexane-1,3-diyl)bis(1,3,4-thiadiazole-5,2-diyl))bis(2-(2-isopropoxyphenyl)acetamide)]",100 to 500
13,"CC(=O)Nc1ccccc1CC(=O)Nc1nnc([C@H]2CCC[C@H](c3nnc(NC(=O)Cc4ccccc4NC(C)=O)s3)C2)s1 [Compound 55, N,N′-(5,5′-((1S,3S)-cyclohexane-1,3-diyl)bis(1,3,4-thiadiazole-5,2-diyl))bis(2-(2-acetamidophenyl)acetamide)]",100 to 500
14,"O=C(Cc1ccc([N+](=O)[O-])cc1)Nc1nnc([C@H]2CCC[C@H](c3nnc(NC(=O)Cc4ccc([N+](=O)[O-])cc4)s3)C2)s1 [Compound 64, N,N′-(5,5′-((1S,3S)-cyclohexane-1,3-diyl)bis(1,3,4-thiadiazole-5,2-diyl))bis(2-(4-nitrophenyl)acetamide)]",1000 to 2000
15,"Nc1cccc(CC(=O)Nc2nnc([C@H]3CCC[C@H](c4nnc(NC(=O)Cc5cccc(N)c5)s4)C3)s2)c1 [Compound 53, N,N′-(5,5′-((1S,3S)-cyclohexane-1,3-diyl)bis(1,3,4-thiadiazole-5,2-diyl))bis(2-(3-aminophenyl)acetamide)]",< 100
16,CC(=O)Nc1nnc([C@H]2CCC[C@H](c3nnc(NC(C)=O)s3)C2)s1 [Compound 41],100 to 500

# Continued, values first:
row,IC50 [nM],Compound
1,< 100,O=C(Cc1ccccn1)Nc1nnc([C@H]2CC[C@H](c3nnc(NC(=O)Cc4ccccn4)s3)C2)s1 [Compound 309]
2,< 100,"O=C(Cc1cccc(N2CC(F)(F)C2)n1)Nc1nnc([C@H]2CCC[C@H](c3nnc(NC(=O)CC4CC4)s3)C2)s1 [Compound 349, 2-cyclopropyl-N-(5-((1S,3S)-3-(5-(2-(6-(3,3-difluoroazetidin-1-yl)pyridin-2-yl)acetamido)-1,3,4-thiadiazol-2-yl)cyclohexyl)-1,3,4-thiadiazol-2-yl)acetamide]"
3,< 100,O=C(Cc1csc(N2CC(F)(F)C2)n1)Nc1nnc([C@H]2CCC[C@H](c3nnc(NC(=O)Cc4csc(N5CC(F)(F)C5)n4)s3)C2)s1 [Compound 336]
4,< 100,"O=C(Cc1ccccn1)Nc1nnc([C@H]2CCC[C@H](c3nnc(NC(=O)[C@@H](O)c4ccccc4)s3)C2)s1 [Compound 376, (S)-2-hydroxy-2-phenyl-N-(5-((1S,3S)-3-(5-(2-(pyridin-2-yl)acetamido)-1,3,4-thiadiazol-2-yl)cyclohexyl)-1,3,4-thiadiazol-2-yl)acetamide]"
5,< 100,"O=C(Cc1cccc(N2CC(F)(F)C2)n1)Nc1nnc([C@H]2CCC[C@H](c3nnc(NC(=O)[C@@H](O)c4ccccc4)s3)C2)s1 [Compound 387, (S)—N-(5-((1S,3S)-3-(5-(2-(6-(3,3-difluoroazetidin-1-yl)pyridin-2-yl)acetamido)-1,3,4-thiadiazol-2-yl)cyclohexyl)-1,3,4-thiadiazol-2-yl)-2-hydroxy-2-phenylacetamide]"
6,< 100,"O=C(Cc1cccc(OC(F)(F)F)c1)Nc1nnc([C@H]2CCC[C@H](c3nnc(NC(=O)C(CO)c4ccccc4)s3)C2)s1 (stereo partly drawn) [Compound 389, 3-hydroxy-2-phenyl-N-(5-((1S,3S)-3-(5-(2-(3-(trifluoromethoxy)phenyl)acetamido)-1,3,4-thiadiazol-2-yl)cyclohexyl)-1,3,4-thiadiazol-2-yl)propanamide]"
7,< 100,COCCOc1ccnc(CC(=O)Nc2nnc([C@H]3CCC[C@H](c4nnc(NC(=O)Cc5cc(OCCOC)ccn5)s4)C3)s2)c1 [Compound 353]
8,< 100,"N#Cc1cccc(CC(=O)Nc2nnc([C@H]3CCC[C@H](c4nnc(NC(=O)Cc5cccc(C6CCCNC6)c5)s4)C3)s2)c1 (stereo partly drawn) [Compound 367, 2-(3-cyanophenyl)-N-(5-((1S,3S)-3-(5-(2-(3-(piperidin-3-yl)phenyl)acetamido)-1,3,4-thiadiazol-2-yl)cyclohexyl)-1,3,4-thiadiazol-2-yl)acetamide]"
9,< 100,O=C(Cc1cccc(CO)c1)Nc1nnc([C@H]2CCC[C@H](c3nnc(NC(=O)Cc4cccc(CO)c4)s3)C2)s1 [Compound 351]
10,< 100,"CC(=O)Nc1cccc(CC(=O)Nc2nnc([C@H]3CCC[C@H](c4nnc(NC(=O)Cc5cccc(NC(C)=O)n5)s4)C3)s2)n1 [Compound 104, N,N′-(5,5′-((1S,3S)-cyclohexane-1,3-diyl)bis(1,3,4-thiadiazole-5,2-diyl))bis(2-(6-acetamidopyridin-2-yl)acetamide)]"
11,< 100,"N#Cc1cccnc1CC(=O)Nc1nnc([C@H]2CCC[C@H](c3nnc(NC(=O)Cc4ncccc4C#N)s3)C2)s1 (relative stereo) [Compound 113, N,N′-(5,5′-(trans-cyclohexane-1,3-diyl)bis(1,3,4-thiadiazole-5,2-diyl))bis(2-(3-cyanopyridin-2-yl)acetamide)]"
12,< 100,N#Cc1cccc(CC(=O)Nc2nnc([C@H]3CCC[C@H](c4nnc(NC(=O)Cc5cccc(C6CCNCC6)c5)s4)C3)s2)c1 [Compound 355]
